The values below come from PMC12167813, “Characterization of a two-component kinase that initiates the bacterial catabolism of hydroxyphenylethanones” (The Journal of Biological Chemistry, 2025).

The test system of assay [1] is T1, HpeHI.
T1 construct: gene hpeH; two components made separately in E. coli, N-terminal His tags cut with TEV; phenolic site in HpeH
In words: continuous spectrophotometric assay. It counts as biochemical, Rhodococcus rhodochrous. Conditions: apparent; 500 μM ATP, 2.0 mM MgCl2, 25 μM MnCl2, HEPES pH 7.5, I = 20 mM, 30 °C; 0.05 μM HpeH, 0.10 μM HpeI. The text has this:
continuous spectrophotometric assay on HpeHI

The subject of assay [2] is T1, HpeHI. Put plainly: continuous spectrophotometric assay, low-concentration rates verified by LC-MS. In kind it is biochemical, Rhodococcus rhodochrous. Conditions: apparent; 500 μM ATP, 2.0 mM MgCl2, 25 μM MnCl2, HEPES pH 7.5, I = 20 mM, 30 °C; 0.05 μM HpeH, 0.10 μM HpeI; upper bound. An excerpt:
continuous spectrophotometric assay, low-concentration rates verified by LC-MS on HpeHI

In assay [3] the target is HpeH (Rhodococcus rhodochrous GD02). Put plainly: mass photometry; Refeyn TwoMP; samples at 20 nM in the standard assay buffer (low ionic strength); acquisition 60 s.
The target is the same in assay [4]. In words: SEC-MALS; Superdex 200; 50 µl of HpeH (12.5 µM), HpeI (25 µM) or both, incubated at room temperature for at least 20 min; 10 mM Hepes pH 7.5, 0.50 mM TCEP, 2.0 mM MgCl2, 0.25 mM MnCl2, with 20 mM or 200 mM NaCl; also with AMP-PNP. (In general: SEC sorts molecules by how far they enter the pores of the column.)

Take `COc1cc(C=O)ccc1O` [vanillin]: in the assay on HpeHI [1], the Km (commonly the substrate concentration at which the rate is half of its maximum) was found to be 10.3 µM.

For `O=Cc1ccc(O)cc1` [4-hydroxybenzaldehyde], in the assay with HpeHI [1], the Michaelis-Menten constant (Km) came to 9.6 µM.

In the case of `COc1cc(C(C)=O)ccc1O` [acetovanillone], in the assay on HpeHI [2], the Km was below 0.3 µM.

In the case of HpeH (enzyme), the stoichiometry N in assay [3] and in assay [4] was 2 throughout.

Consider `CC(=O)c1ccc(O)cc1` [4-hydroxyacetophenone], for which the Michaelis-Menten constant (Km) with HpeHI [2] is below 0.3 µM.
